Among the data in patent US20240383904A1, “HETEROCYCLIC COMPOUNDS” (Hoffmann-La Roche Inc., priority 2021, published 2024) are IC50 values, retold here.

Each structure is given as a SMILES string.

The target of the test is T1, MAGL (Homo sapiens, UniProt Q99685).
T1 sequence (Q99685 1-303): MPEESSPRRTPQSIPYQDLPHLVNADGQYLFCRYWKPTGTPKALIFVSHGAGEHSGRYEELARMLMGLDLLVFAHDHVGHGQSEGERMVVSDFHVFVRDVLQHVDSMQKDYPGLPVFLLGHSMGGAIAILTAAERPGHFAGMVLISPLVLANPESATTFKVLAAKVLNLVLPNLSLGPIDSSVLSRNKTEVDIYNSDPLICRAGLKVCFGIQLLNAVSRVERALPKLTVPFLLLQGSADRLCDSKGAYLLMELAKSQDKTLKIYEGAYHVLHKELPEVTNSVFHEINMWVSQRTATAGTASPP
The test can be described thus: 2-AG assay: MAGL inhibitory activity by hydrolysis of 2-arachidonoylglycerol to arachidonic acid, followed by mass spectrometry. The settings on record: 15 min preincubation, 30 min reaction at RT, 8 μM 2-arachidonoylglycerol. It is filed as biochemical.
The IC50 is the concentration at which inhibition is half-maximal. A higher IC50 goes with weaker potency in that assay. For `O=C1CCC2(CN(C(=O)N3CC4(CCN(S(=O)(=O)c5ccc(C(F)(F)F)cc5F)CC4)C3)C2)N1` [Example 194, 2-[7-[2-fluoro-4-(trifluoromethyl)phenyl]sulfonyl-2,7-diazaspiro[3.5]nonane-2-carbonyl]-2,5-diazaspiro[3.4]octan-6-one], the IC50 was 0.0446 µM.

With `O=C1NC2(CO1)CN(C(=O)N1CC3(C1)CN(S(=O)(=O)c1ccc(F)cc1C(F)(F)F)C3)C2` [Example 195, 2-[2-[4-fluoro-2-(trifluoromethyl)phenyl]sulfonyl-2,6-diazaspiro[3.3]heptane-6-carbonyl]-7-oxa-2,5-diazaspiro[3.4]octan-6-one], inhibition was half-maximal at 0.00251 µM (IC50).

The compound `O=C1NC2(CO1)CN(C(=O)N1CC3(C1)CN(S(=O)(=O)c1cncc(C(F)(F)F)c1)C3)C2` [Example 196, 2-[2-[[5-(trifluoromethyl)-3-pyridyl]sulfonyl]-2,6-diazaspiro[3.3]heptane-6-carbonyl]-7-oxa-2,5-diazaspiro[3.4]octan-6-one] gave an IC50 of 0.0388 µM.

On to `O=C1NC2(CO1)CN(C(=O)N1CC3(C1)CN(S(=O)(=O)NCC1(C(F)(F)F)CC1)C3)C2` [Example 197, 6-(6-oxo-7-oxa-2,5-diazaspiro[3.4]octane-2-carbonyl)-N-[[1-(trifluoromethyl)cyclopro-pyl]methyl]-2,6-diazaspiro[3.3]heptane-2-sulfonamide], for which the IC50 came out at 0.00439 µM.

On to `O=C1CCC2(CN(C(=O)N3CC4(C3)CN(S(=O)(=O)c3cccc(OC(F)(F)F)c3)C4)C2)N1` [Example 198, 2-[2-[3-(trifluoromethoxy)phenyl]sulfonyl-2,6-diazaspiro[3.3]heptane-6-carbonyl]-2,5-diazaspiro[3.4]octan-6-one], for which half-maximal inhibition (IC50) required 0.232 µM.

For `O=C1CCC2(CN(C(=O)N3CC4(C3)CN(S(=O)(=O)c3ccc(OC(F)(F)F)cc3)C4)C2)N1` [Example 199, 2-[2-[4-(trifluoromethoxy)phenyl]sulfonyl-2,6-diazaspiro[3.3]heptane-6-carbonyl]-2,5-diazaspiro[3.4]octan-6-one], the IC50 was found to be 0.266 µM. This IC50 and that of the compound before are within 1.5-fold of each other.

The compound `O=C1CCC2(CN(C(=O)N3CC4(C3)CN(S(=O)(=O)c3ccccc3OC(F)(F)F)C4)C2)N1` [Example 200, 2-[2-[2-(trifluoromethoxy)phenyl]sulfonyl-2,6-diazaspiro[3.3]heptane-6-carbonyl]-2,5-diazaspiro[3.4]octan-6-one] showed an IC50 of 0.116 µM. This IC50 is about 2.3-fold lower than that of the compound before.

In the case of `CNC(=O)c1ccccc1CN1CC2(C1)CN(C(=O)N1CC3(COC(=O)N3)C1)C2` [Example 201, N-methyl-2-[[2-(6-oxo-7-oxa-2,5-diazaspiro[3.4]octane-2-carbonyl)-2,6-diazaspiro[3.3]heptan-6-yl]methyl]benzamide], the IC50 turned out to be 0.165 µM.

As to `O=C1NC2(CO1)CN(C(=O)N1CC3(C1)CN(c1ccc(C(F)(F)F)cn1)C3)C2` [Example 202, 2-[6-[5-(trifluoromethyl)-2-pyridyl]-2,6-diazaspiro[3.3]heptane-2-carbonyl]-7-oxa-2,5-diazaspiro[3.4]octan-6-one], the IC50 is 0.0614 µM. This IC50 lies about 2.7-fold lower than the previous one.

The compound `O=C1NC2(CO1)CN(C(=O)N1CC3(C1)CN(c1ncc(C(F)(F)F)cc1F)C3)C2` [Example 203, 2-[6-[3-fluoro-5-(trifluoromethyl)-2-pyridyl]-2,6-diazaspiro[3.3]heptane-2-carbonyl]-7-oxa-2,5-diazaspiro[3.4]octan-6-one] returned a half-inhibitory concentration (IC50) of 0.0616 µM.

For the compound `O=C1NC2(CO1)CN(C(=O)N1CC3(CCN(S(=O)(=O)C45CC(C(F)(F)F)(C4)C5)CC3)C1)C2` [Example 204, 2-[7-[[3-(trifluoromethyl)-1-bicyclo[1.1.1]pentanyl]sulfonyl]-2,7-diazaspiro[3.5]nonane-2-carbonyl]-7-oxa-2,5-diazaspiro[3.4]octan-6-one], the IC50 came out at 0.0118 µM.

Turning to `O=C1CCC2(CN(C(=O)N3CC4(CCN(S(=O)(=O)C56CC(C(F)(F)F)(C5)C6)CC4)C3)C2)N1` [Example 205, 2-[7-[[3-(trifluoromethyl)-1-bicyclo[1.1.1]pentanyl]sulfonyl]-2,7-diazaspiro[3.5]nonane-2-carbonyl]-2,5-diazaspiro[3.4]octan-6-one], the IC50 was found to be 0.265 µM.

For `O=C1NC2(CO1)CN(C(=O)N1CC3(C1)CN(c1cnc(C(F)(F)F)cn1)C3)C2` [Example 206, 2-[6-[5-(trifluoromethyl)pyrazin-2-yl]-2,6-diazaspiro[3.3]heptane-2-carbonyl]-7-oxa-2,5-diazaspiro[3.4]octan-6-one], the IC50 came to 0.278 µM.

For the compound `O=C1NC2(CO1)CN(C(=O)N1CC3(C1)CN(c1ncc(C(F)(F)F)cn1)C3)C2` [Example 207, 2-[6-[5-(trifluoromethyl)pyrimi-din-2-yl]-2,6-diazaspiro[3.3]heptane-2-carbonyl]-7-oxa-2,5-diazaspiro[3.4]octan-6-one], the midpoint of inhibition, the IC50, lay at 0.414 µM.

In the case of `O=C1COCC2(CN(C(=O)N3CC4(CC(NS(=O)(=O)c5cccc(C(F)(F)F)c5)C4)C3)C2)N1` [Example 208, N-[2-(6-oxo-8-oxa-2,5-diazaspiro[3.5]nonane-2-carbonyl)-2-azaspiro[3.3]heptan-6-yl]-3-(trifluoromethyl)benzene-sulfonamide], the IC50 is 0.0671 µM.

With `N#Cc1cc(C(F)(F)F)ncc1O[C@H]1CCC2(C1)CN(C(=O)N1CC3(COC(=O)N3)C1)C2` [Example 209, 5-[[(6S)-2-(6-oxo-7-oxa-2,5-diazaspiro[3.4]octane-2-carbonyl)-2-azaspiro[3.4]octan-6-yl]oxy]-2-(trifluoromethyl)pyridine-4-carbonitrile], half-maximal inhibition (IC50) required 0.00628 µM.

`N#Cc1cc(C(F)(F)F)ncc1CC1CCC2(C1)CN(C(=O)N1CC3(COC(=O)N3)C1)C2` (stereo not shown) [Example 210, 5-[[2-(6-oxo-7-oxa-2,5-diazaspiro[3.4]octane-2-carbonyl)-2-azaspiro[3.4]octan-6-yl]methyl]-2-(trifluoromethyl)pyridine-4-carbonitrile] registered an IC50 of 0.00084 µM.

Regarding `N#Cc1cc(C(F)(F)F)ncc1CC1CC2(C1)CN(C(=O)N1CC3(COC(=O)N3)C1)C2` [Example 211, 5-[[2-(6-oxo-7-oxa-2,5-diazaspiro[3.4]octane-2-carbonyl)-2-azaspiro[3.3]heptan-6-yl]methyl]-2-(trifluoromethyl)pyridine-4-carbonitrile], half-maximal inhibition (IC50) required 0.00039 µM. Against the preceding compound, the IC50 is about 2.2-fold lower.

In turn, `N#Cc1cc(C(F)(F)F)ncc1C[C@H]1CCC2(C1)CN(C(=O)N1CC3(COC(=O)N3)C1)C2` [Example 212, 5-[[(6S)-2-(6-oxo-7-oxa-2,5-diazaspiro[3.4]octane-2-carbonyl)-2-azaspiro[3.4]octan-6-yl]methyl]-2-(trifluoromethyl)pyridine-4-carbonitrile] registered an IC50 of 0.00046 µM.

As to `N#Cc1cc(C(F)(F)F)ncc1C[C@@H]1CCC2(C1)CN(C(=O)N1CC3(COC(=O)N3)C1)C2` [Example 213, 5-[[(6R)-2-(6-oxo-7-oxa-2,5-diazaspiro[3.4]octane-2-carbonyl)-2-azaspiro[3.4]octan-6-yl]methyl]-2-(trifluoromethyl)pyridine-4-carbonitrile], the IC50 came to 0.00055 µM.

Consider `N#Cc1cc(C(F)(F)F)ncc1O[C@H]1CCC2(C1)CN(C(=O)N1CC3(COCC(=O)N3)C1)C2` [Example 214, 5-[[(6S)-2-(6-oxo-8-oxa-2,5-diazaspiro[3.5]nonane-2-carbonyl)-2-azaspiro[3.4]octan-6-yl]oxy]-2-(trifluoromethyl)pyridine-4-carbonitrile], for which the half-inhibitory concentration (IC50) was found to be 0.386 µM.

In turn, `O=C1CCC2(CN(C(=O)N3CC4(CC(Cc5ccc(S(=O)(=O)C6CC6)cc5)C4)C3)C2)N1` [Example 215, 2-[6-[(4-cyclopropylsulfonylphe-nyl)methyl]-2-azaspiro[3.3]heptane-2-carbonyl]-2,5-diazaspiro[3.4]octan-6-one] registered an IC50 of 0.0032 µM.

`O=C1CCC2(CN(C(=O)N3CC4(CC(Cc5cnn(C(F)(F)F)c5)C4)C3)C2)N1` [Example 216, 2-[6-[[1-(trifluoromethyl)pyrazol-4-yl]methyl]-2-azaspiro[3.3]heptane-2-carbonyl]-2,5-diazaspiro[3.4]octan-6-one] registered an IC50 of 0.0176 µM.

For the compound `N#Cc1cc(CC2CC3(C2)CN(C(=O)N2CC4(CCC(=O)N4)C2)C3)cc(C(F)(F)F)c1` [Example 217, 3-[[2-(6-oxo-2,5-diazaspiro[3.4]octane-2-carbonyl)-2-azaspiro[3.3]heptan-6-yl]methyl]-5-(trifluoromethyl)benzoni-trile], the IC50 came out at 0.00078 µM.

On to `O=C1CCC2(CN(C(=O)N3CC4(CCN(Cc5ccc(S(=O)(=O)C(F)(F)F)cc5)C4)C3)C2)N1` [Example 218, 2-[7-[[4-(trifluoromethylsulfonyl)phenyl]methyl]-2,7-diazaspiro[3.4]octane-2-carbonyl]-2,5-diazaspiro[3.4]octan-6-one], for which the IC50 came to 0.0873 µM.

As to `N#Cc1ccc(CC2CC3(C2)CN(C(=O)N2CC4(CCC(=O)N4)C2)C3)cc1C(F)(F)F` [Example 219, 4-[[2-(6-oxo-2,5-diazaspiro[3.4]octane-2-carbonyl)-2-azaspiro[3.3]heptan-6-yl]methyl]-2-(trifluoromethyl)benzoni-trile], the IC50 was 0.00043 µM. Against the preceding compound, the IC50 is about 200-fold lower.

As for `O=C1CCC2(CN(C(=O)N3CC4(CC(Cc5cc(C(F)(F)F)n[nH]5)C4)C3)C2)N1` [Example 220, 2-[6-[[3-(trifluoromethyl)-1H-pyrazol-5-yl]methyl]-2-azaspiro[3.3]heptane-2-carbonyl]-2,5-diazaspiro[3.4]octan-6-one], the IC50 was found to be 0.00418 µM.

In turn, `O=C1CCC2(CN(C(=O)N3CC4(CC[C@H](Cc5ccc(S(=O)(=O)C(F)(F)F)cc5)C4)C3)C2)N1` [Example 221, 2-[(6R)-6-[[4-(trifluoromethylsulfonyl)phenyl]methyl]-2-azaspiro[3.4]octane-2-carbonyl]-2,5-diazaspiro[3.4]octan-6-one] registered an IC50 of 0.00131 µM.
